# Assay results published in paper PMC7792611, “The Delta-Specific Opioid Glycopeptide BBI-11008: CNS Penetration and Behavioral Analysis in a Preclinical Model of Levodopa-Induced Dyskinesia” (International Journal of Molecular Sciences, 2020).
# Several values for one entry are separate records, joined by “and”; a condition that tells them apart may be missing. Equal entries are not always repeated. Entries after “also recorded” stand apart in the source; their conditions may differ. Where two headings read alike, the source gives them in different places. Non-standard residues stand in square brackets, D forms with d. Residues, ends and D or L forms follow the SMILES beside them. *: point of attachment. βGlc = OC[C@H]1O[C@@H](*)[C@H](O)[C@@H](O)[C@@H]1O; Nle = CCCC[C@H](N)C(=O)O
# What was measured:
# [1] = In vivo microdialysis in the dorsolateral striatum with LC-MS; conditions: 10 mg/kg i.p., rat
# Method: Adult male Sprague–Dawley rats (Harlan, Indianapolis, IN, USA) weighing between 250 and 350 g were used for all experiments (n = 6). Rats were housed in a temperature and humidity-controlled room with 12 h light/dark cycles with food and water available ad libitum. All animals were treated as approved by the University of Michigan Unit for Laboratory Animal Medicine (Protocol: 08516; approval date: 4 April 2011) and in accordance with the National Institute of Health (NIH) Guidelines for the Care and Use of Laboratory Animals. The number of animals used, and their suffering were minimized.
# We performed in vivo microdialysis in the rat DLS and applied LC-MS analytical techniques to quantify brain concentrations of the deltorphin analogue BBI-11008, following systemic treatment, and of endogenous leu-enkephalin levels both before and after treatment. These experiments were performed in awake, freely moving rats, implanted with microdialysis probes in the DLS 24 h prior to the experiments. The animals were fully recovered, their wounds healed, and the probes were fixed in place with dental cement. The details of the microdialysis procedure to detect glycopeptides in the rat striatum has been described in detail in [27], with the following minor modifications: the concentric microdialysis probes were slightly larger at 3 mm, and the microdialysis probes were flushed at a lower flow rate of 0.7 µL/min.
# human DOR = target: T1, human DOR (Homo sapiens, UniProt P41143); assay: Opioid receptor binding, inhibition of [3H]naltrindole binding to CHO cell membranes; conditions: for % Inhibition at DOR: 0.2 nM [3H]naltrindole
# T1 construct: expressed in transfected cells
# human KOR = target: T2, human KOR (Homo sapiens, UniProt P41145); assay: Opioid receptor binding, [3H]U69593 binding to CHO cell membranes; conditions: 1 nM [3H]U69593; cells print % values
# T2 construct: expressed in transfected cells
# Method: Opioid Receptor Binding: Opioid receptor binding assays were performed as previously described. Membranes from CHO cells stably expressing either the human DOR, MOR, or KOR were used in the binding experiments. […] [^3H]U69593 at a concentration of 1 nM was used to measure binding to the KOR. […] BBI-11008 was chosen for further study.
# human MOR = target: T3, human MOR (Homo sapiens, UniProt P35372); assay: Opioid receptor binding, inhibition of [3H]DAMGO binding to CHO cell membranes; conditions: for % Inhibition at MOR: 0.25 nM [3H]DAMGO
# T3 construct: expressed in transfected cells
# [2] = tested on: L-DOPA-induced dyskinesia (LID) models; conditions: cited from earlier work
# [3] = tested on: L-DOPA-induced abnormal involuntary movements in 6-OHDA-lesioned rats; assay: L-DOPA-induced dyskinesia model in unilateral 6-OHDA-lesioned rats, AIMs scoring; assay type: in vivo, rat; conditions: MK-801 0.3 mg/kg i.p., 25 min prior to L-DOPA
# Method: Male Sprague-Dawley rats (250 g; Harlan, Indianapolis, IN, USA), were housed in a temperature and humidity-controlled room with 12 h light/dark cycles with food and water available ad libitum. All animals were treated as approved by the Institutional Animal Care and Use Committee at the University of Arizona (Protocol number: 10-204; amendment approval date: 20 August 2012) and in accordance with the NIH Guidelines for the Care and Use of Laboratory Animals. The number of animals used, and their suffering were minimized.
# All surgical procedures were performed as published in our prior work unless otherwise stated. […]
# Rats showing ipsiversive rotations were selected and treated daily (i.p.) for 3 weeks with a combination of L-DOPA (7 mg/kg) and benserazide (14 mg/kg, MilliporeSigma). […] Baseline L-DOPA-induced LAO and locomotor AIMs (mean ± SEM) were determined over 3 testing sessions, before testing of the compounds was begun. […]
# L-DOPA-induced AIMs were scored by an experimentally blinded investigator according to [57]. […] In order to quantify the severity of the AIMs, rats were observed individually in their standard cages every 20th min between 20 and 180 min after an injection of L-DOPA. […]
# tail-withdrawal assay = conditions: mice, intravenous administration; ref Bilsky and Polt, personal communication; cited from earlier work
# T3 sequence (P35372 whole entry): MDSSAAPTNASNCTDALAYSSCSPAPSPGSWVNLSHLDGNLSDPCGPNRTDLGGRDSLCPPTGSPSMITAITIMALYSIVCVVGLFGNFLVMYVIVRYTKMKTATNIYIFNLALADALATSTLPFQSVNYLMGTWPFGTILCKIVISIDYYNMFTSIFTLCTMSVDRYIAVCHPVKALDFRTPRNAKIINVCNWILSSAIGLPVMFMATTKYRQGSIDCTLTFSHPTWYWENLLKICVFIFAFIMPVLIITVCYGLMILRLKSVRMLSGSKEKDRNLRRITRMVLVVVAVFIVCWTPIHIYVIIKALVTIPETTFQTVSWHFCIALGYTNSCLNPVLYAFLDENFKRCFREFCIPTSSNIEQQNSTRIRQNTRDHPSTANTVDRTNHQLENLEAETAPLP
# T1 sequence (P41143 whole entry): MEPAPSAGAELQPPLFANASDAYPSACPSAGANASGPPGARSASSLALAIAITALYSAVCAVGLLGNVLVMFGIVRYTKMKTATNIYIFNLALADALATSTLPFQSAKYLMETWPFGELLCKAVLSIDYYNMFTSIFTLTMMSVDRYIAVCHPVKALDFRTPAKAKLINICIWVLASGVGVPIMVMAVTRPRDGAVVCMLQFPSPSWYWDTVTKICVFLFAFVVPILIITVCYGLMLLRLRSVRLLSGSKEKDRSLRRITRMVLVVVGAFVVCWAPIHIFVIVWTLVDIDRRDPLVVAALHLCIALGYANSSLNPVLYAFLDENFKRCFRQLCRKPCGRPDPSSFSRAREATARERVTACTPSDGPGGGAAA
# T2 sequence (P41145 whole entry): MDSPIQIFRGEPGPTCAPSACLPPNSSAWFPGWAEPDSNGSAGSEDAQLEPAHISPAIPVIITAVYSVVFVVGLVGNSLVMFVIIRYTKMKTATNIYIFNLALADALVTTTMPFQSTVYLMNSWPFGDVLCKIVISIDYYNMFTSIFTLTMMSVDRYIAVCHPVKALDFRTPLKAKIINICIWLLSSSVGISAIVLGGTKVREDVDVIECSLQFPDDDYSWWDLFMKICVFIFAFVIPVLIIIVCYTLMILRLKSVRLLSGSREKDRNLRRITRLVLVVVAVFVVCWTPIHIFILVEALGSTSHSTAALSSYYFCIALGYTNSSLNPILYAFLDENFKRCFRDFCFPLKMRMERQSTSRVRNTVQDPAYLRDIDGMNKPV
Compound,% Inhibition at DOR (human DOR; peptide 100 nM) [%],% Inhibition at DOR (human DOR; peptide 1 µM) [%],% Inhibition at MOR (human MOR; peptide 100 nM) [%],% Inhibition at MOR (human MOR; peptide 1 µM) [%],further results
"CCCC[C@H](NC(=O)[C@H](CCC(=O)O)NC(=O)[C@H](Cc1ccccc1)NC(=O)[C@@H](C)NC(=O)[C@@H](N)Cc1ccc(O)cc1)C(=O)N[C@@H](CCCC)C(=O)N[C@H](C(N)=O)[C@@H](C)O[C@@H]1O[C@H](CO)[C@@H](O)[C@H](O)[C@H]1O [BBI-11008, H2N-YaFE-Nle-Nle-T-(β-D-Glc)] (H-Y[dA]FE[Nle][Nle]T(βGlc)-NH2)",–,–,–,–,"peak BBI-11008 level relative to baseline endogenous leu-enkephalin [1]: 10 fold; peak BBI-11008 concentration in dorsolateral striatum dialysate ([1]; 10 min post-injection): 150 pM and > 150 pM; level at time molar at 1 h ([1]; male, Sprague-Dawley, in vivo, ip, 10 mg/kg, 60 min, read-out: striatal BBI-11008 concentration at 60 min post-injection (mean)): ~0.037 nM"
"CCCC[C@H](NC(=O)[C@H](CCC(=O)O)NC(=O)[C@H](Cc1ccccc1)NC(=O)[C@@H](C)NC(=O)[C@@H](N)Cc1ccc(O)cc1)C(=O)N[C@@H](CCCC)C(=O)N[C@H](C(N)=O)[C@@H](C)O [BBI-11009, H2N-YaFE-Nle-Nle-T] (H-Y[dA]FE[Nle][Nle]T-NH2)",–,–,–,–,Ki (human DOR): 0.011 µM; % Inhibition at KOR (human KOR): 3.7%; Ki (human MOR): 0.51 µM
CCN(CC)C(=O)c1ccc([C@H](c2cccc(O)c2)N2C[C@@H](C)N(Cc3cccc(F)c3)C[C@@H]2C)cc1 [DPI-289],–,–,–,–,effect on LID ([2]; rodent and non-human primate LID models): anti-dyskinetic
"C[C@]12N[C@H](Cc3ccccc31)c1ccccc12 [MK-801, Dizocilpine]",–,–,–,–,effect on L-DOPA-induced LAO AIMs [3]: reduced levodopa-induced LAO AIMs; also recorded: does reduce LAO-AIMs; also recorded: efficiently blocked LAO AIMs; ipsiversive pro-Parkinsonian locomotor activity [3]: worsened PD symptoms; also recorded: induces ipsiversive pro-Parkinsonian locomotor activity; also recorded: caused ipsiversive turns
CNC1(c2ccccc2Cl)CCCCC1=O (stereo not drawn) [ketamine],–,–,–,–,"effect on LID and Parkinsonism ([2]; sub-anesthetic treatment, rodent models): anti-dyskinetic and anti-Parkinsonian"
Oc1ccc2c3c1O[C@H]1[C@@H](O)CC[C@@]4(O)[C@@H](C2)N(CC2CCC2)CC[C@]314 [nalbuphine],–,–,–,–,effect on LID ([2]; dyskinetic non-human LID primates): reduce LID
CTAP,–,–,–,–,effect on LID ([2]; highly-selective MOR antagonists): did not reduce LID
H2N-YaFHLA-S(β-D-Glc) [BBI-11002],55,77,82,97,–
H2N-YaFHLAT-(β-D-Glc) [BBI-11004],61,76,88,98,–
H2N-YmFHLM-S(β-D-Glc) [BBI-11001],72,84,63,89,–
H2N-YmFHLMT-(β-D-Glc) [BBI-11003],75,83,57,89,–
Lactomorphin [MMP-2200],–,–,–,–,"effect on MK-801-induced pro-Parkinsonian activity ([2]; co-administration with MK-801, rodent LID model): attenuated the pro-Parkinsonian activity of MK-801"
YaFEVVG-CONH2 [deltorphin],–,–,–,–,antinociceptive effect in the tail-withdrawal assay (tail-withdrawal assay): lacks this activity
